Data set [1] deals with cloned human GLP-1 receptor. As to the kind of experiment: cAMP formation in a cell line expressing the cloned human GLP-1 receptor. Conditions: 2 h at 37 °C, cAMP by scintillation proximity assay; read-out: Cell based cAMP ED50.
The target in a further data set is DPP-IV (Homo sapiens, UniProt P27487). Briefly: Stability to DPP-IV in vitro. The conditions noted are these: isolated DPP-IV enzyme, pH 7.4.
For data set [2] the following is noted: from U.S. Pat. No. 5,118,666; cited from earlier work.

We go through four molecules from patent publication US9487570B2, “Glucagon like peptide analogs, composition, and method of use” (BETTA PHARMACEUTICALS CO., LTD, priority 2010, dated 2016).

pEC50: −log10 of the molar value.

Sequence of DPP-IV (P27487 whole entry, species assumed): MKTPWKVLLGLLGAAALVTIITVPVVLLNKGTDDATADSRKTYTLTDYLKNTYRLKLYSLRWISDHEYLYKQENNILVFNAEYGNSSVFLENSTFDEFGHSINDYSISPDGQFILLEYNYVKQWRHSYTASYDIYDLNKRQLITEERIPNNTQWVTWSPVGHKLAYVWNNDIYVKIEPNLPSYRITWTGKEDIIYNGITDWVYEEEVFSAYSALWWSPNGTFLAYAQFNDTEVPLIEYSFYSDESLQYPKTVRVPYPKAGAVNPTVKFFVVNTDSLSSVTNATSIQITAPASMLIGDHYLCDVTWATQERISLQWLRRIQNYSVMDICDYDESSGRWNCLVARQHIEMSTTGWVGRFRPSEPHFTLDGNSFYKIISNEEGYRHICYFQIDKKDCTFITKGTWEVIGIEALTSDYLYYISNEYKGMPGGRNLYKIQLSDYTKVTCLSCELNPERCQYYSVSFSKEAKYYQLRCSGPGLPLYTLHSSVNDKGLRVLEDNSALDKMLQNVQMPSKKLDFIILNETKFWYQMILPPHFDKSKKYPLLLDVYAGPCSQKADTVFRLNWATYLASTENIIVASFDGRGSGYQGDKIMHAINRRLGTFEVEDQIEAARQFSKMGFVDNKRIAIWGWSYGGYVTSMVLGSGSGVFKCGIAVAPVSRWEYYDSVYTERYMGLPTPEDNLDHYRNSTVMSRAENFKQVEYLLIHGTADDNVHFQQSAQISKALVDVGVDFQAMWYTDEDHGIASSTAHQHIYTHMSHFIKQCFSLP
Procedure for DPP-IV: DPP-IV (5 mU, 900 μL) was added, and the solutions were incubated at 37 ° C. At the indicated time points, 100 μL was removed from the reaction mixture, and reactions were terminated by the addition of 5 μL of 10% (v/v) TFA. Each sample was analyzed by MALDI-TOF MS and RP-HPLC as described.

Consider `CC[C@H](C)[C@H](NC(=O)[C@H](Cc1ccccc1)NC(=O)[C@H](CCC(=O)O)NC(=O)[C@H](CCCCN)NC(=O)[C@H](C)NC(=O)[C@H](C)NC(=O)[C@H](CCC(N)=O)NC(=O)CNC(=O)[C@H](CCC(=O)O)NC(=O)[C@H](CC(C)C)NC(=O)[C@H](Cc1ccc(O)cc1)NC(=O)[C@H](CO)NC(=O)[C@H](CO)NC(=O)[C@@H](NC(=O)[C@H](CC(=O)O)NC(=O)[C@H](CO)NC(=O)[C@@H](NC(=O)[C@H](Cc1ccccc1)NC(=O)[C@@H](NC(=O)CNC(=O)[C@H](CCC(=O)O)NC(=O)[C@H](C)NC(=O)[C@@H](N)Cc1c[nH]cn1)[C@@H](C)O)[C@@H](C)O)C(C)C)C(=O)N[C@@H](C)C(=O)N[C@@H](Cc1c[nH]c2ccccc12)C(=O)N[C@@H](CC(C)C)C(=O)N[C@H](C(=O)N[C@@H](CCCCN)C(=O)NCC(=O)N[C@@H](CCCNC(=N)N)C(N)=O)C(C)C` [GLP-1, reference compound], for which the pEC50 in data set [1] is 10.22.

In the case of `CCCCCCCCCCCCCCCC(=O)N[C@@H](CCC(=O)NCCCC[C@H](NC(=O)[C@H](C)NC(=O)[C@H](C)NC(=O)[C@H](CCC(N)=O)NC(=O)CNC(=O)[C@H](CCC(=O)O)NC(=O)[C@H](CC(C)C)NC(=O)[C@H](Cc1ccc(O)cc1)NC(=O)[C@H](CO)NC(=O)[C@H](CO)NC(=O)[C@@H](NC(=O)[C@H](CC(=O)O)NC(=O)[C@H](CO)NC(=O)[C@@H](NC(=O)[C@H](Cc1ccccc1)NC(=O)[C@@H](NC(=O)CNC(=O)[C@@H](/C=C/[C@H](C)NC(=O)[C@@H](N)Cc1c[nH]cn1)CCC(=O)O)[C@@H](C)O)[C@@H](C)O)C(C)C)C(=O)N[C@@H](CCC(=O)O)C(=O)N[C@@H](Cc1ccccc1)C(=O)N[C@H](C(=O)N[C@@H](C)C(=O)N[C@@H](Cc1c[nH]c2ccccc12)C(=O)N[C@@H](CC(C)C)C(=O)N[C@H](C(=O)N[C@@H](CCCNC(=N)N)C(=O)NCC(=O)N[C@@H](CCCNC(=N)N)C(=O)NCC(=O)O)C(C)C)[C@@H](C)CC)C(=O)O` [N-ε^26-[γ-L-glutamyl(N-α-hexadecanoyl)]-[Q-linker-a8-9,Arg34]GLP-1-(7-37)-peptide], at DPP-IV, the amount remaining at 1 h, 0.5 nmol/L was determined as 98% and the share remaining at 24 h, 0.5 nmol/L was found to be 98%.

For `CCCCCCCCCCCCCCCC(=O)N[C@@H](CCC(=O)NCCCC[C@H](NC(=O)[C@H](C)NC(=O)[C@H](C)NC(=O)[C@H](CCC(N)=O)NC(=O)CNC(=O)[C@H](CCC(=O)O)NC(=O)[C@H](CC(C)C)NC(=O)[C@H](Cc1ccc(O)cc1)NC(=O)[C@H](CO)NC(=O)[C@H](CO)NC(=O)[C@@H](NC(=O)[C@H](CC(=O)O)NC(=O)[C@H](CO)NC(=O)[C@@H](NC(=O)[C@H](Cc1ccccc1)NC(=O)[C@@H](NC(=O)CNC(=O)[C@H](CCC(=O)O)N[C@@H]([C@H](C)NC(=O)[C@@H](N)Cc1c[nH]cn1)C(F)(F)F)[C@@H](C)O)[C@@H](C)O)C(C)C)C(=O)N[C@@H](CCC(=O)O)C(=O)N[C@@H](Cc1ccccc1)C(=O)N[C@H](C(=O)N[C@@H](C)C(=O)N[C@@H](Cc1c[nH]c2ccccc12)C(=O)N[C@@H](CC(C)C)C(=O)N[C@H](C(=O)N[C@@H](CCCNC(=N)N)C(=O)NCC(=O)N[C@@H](CCCNC(=N)N)C(=O)NCC(=O)O)C(C)C)[C@@H](C)CC)C(=O)O` [N-ε^26-[γ-L-glutamyl(N-α-hexadecanoyl)]-[Q-linker-d8,Arg34]GLP-1-(7-37)-peptide], at DPP-IV, the fraction remaining at 1 h, 0.5 nmol/L was 98% and the fraction remaining at 24 h, 0.5 nmol/L stood at 98%.

Regarding GLP-1(7-37)OH, the biological half-life in data set [2] is 3 to 5 minutes.
